The values that follow come from patent US20240207318A1, “CHIMERIC COSTIMULATORY RECEPTORS, CHEMOKINE RECEPTORS, AND THE USE OF SAME IN CELLULAR IMMUNOTHERAPIES” (Iovance Biotherapeutics, Inc., priority 2021, published 2024).

“Also recorded” adds a separate entry of the source.

Assay [1] concerns TILs. Nature of the assay: Cytokine expression of drug-treated TILs after overnight anti-CD3/CD28 bead stimulation. Type of assay: cell-based, human.
The test system of assay [2] is TILs. Nature of the assay: Flow cytometry phenotype of drug-treated TILs (T-cell subsets, surface markers, transcription factors). Type of assay: cell-based, human. Background: Flow cytometry measures light scatter and fluorescence of single cells or particles in a stream.
For assay [3], the system named is TILs. Nature of the assay: Expansion and viability of TILs treated with drug during ex vivo 22-day expansion. Type of assay: cell-based, human. The settings on record: ipatasertib 0.3 or 1 μM, pre-REP and REP or REP only, relative to controls. How it is done: Patient tumors from different indications were received, fragmented, and subjected to an expansion protocol for TIL manufacturing. Different doses (0.3 μM and 1 μM) of the pan-AKT inhibitor ipatasertib were added to the culture during ex vivo expansion. The expansion potential, as well as the phenotypic and functional characteristics were evaluated on the final TIL product. Eight tumors, including tumors from melanoma, NSCLC, head and neck cancer, ovarian cancer, and breast cancer, were used in combination with the Gen 2 process.
Expansion, viability and T cell distribution in control and AKT inhibitor-treated TILs are shown. TILs were left untreated or treated with increasing concentrations of the pan-AKT inhibitor ipatasertib. Treatment was added either during the pre-REP and REP (blue bars) or during the REP stage only (purple bars). Fold expansion and viability of TIL at the end of the 22-day expansion process are shown. Frequency of CD8^+, CD4^+ and CD4^+ (Foxp3^+) cells after the expansion process on cryopreserved cells are also shown.
In this example, the use of decitabine, a DNA hypomethylation agent, in culture as an epigenetic modifier of TIL products was explored. […] Patient tumors (N=8) from different tumor types (non-small cell lung, head and neck, ovarian, and breast cancers) were obtained from donors, fragmented, and subjected to a 22-day expansion protocol for TIL generation. Different doses (10 nM, 30 nM, and 100 nM) of decitabine were added to the culture during ex vivo expansion either during the pre-REP and REP stages or during REP only. The expansion potential as well as the phenotypic and functional characteristics of TILs were evaluated in the final TIL product.
TILs were left untreated (CTRL, gray bars) or treated with increasing concentrations of decitabine. Treatment was added either during the REP stage only (blue bars) or during both pre-REP and REP (green bars).

The target in another assay is T1, PD-L1 (human, UniProt Q9NZQ7 19-290, limits assumed).
T1 construct: also called hPD-L1; CD274
As to the kind of experiment: characterization of the anti-PD-L1 antibody clone; EC50 assay method not given.

[4] abbreviates: AKT inhibition during expansion.

T1 sequence (Q9NZQ7 19-290 limits assumed): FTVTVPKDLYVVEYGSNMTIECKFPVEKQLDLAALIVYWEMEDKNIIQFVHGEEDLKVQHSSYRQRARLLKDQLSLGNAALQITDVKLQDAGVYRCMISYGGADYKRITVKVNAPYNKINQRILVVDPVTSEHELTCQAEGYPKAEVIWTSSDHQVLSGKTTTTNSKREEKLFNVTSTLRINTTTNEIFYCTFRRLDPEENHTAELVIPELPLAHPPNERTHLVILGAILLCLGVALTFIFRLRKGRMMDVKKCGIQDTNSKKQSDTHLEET

`CC(C)NC[C@@H](C(=O)N1CCN(c2ncnc3c2[C@H](C)C[C@H]3O)CC1)c1ccc(Cl)cc1` [ipatasertib]: the “cytokine output following stimulation” value in the assay on TILs [1] (1 μM ipatasertib at pre-REP and REP, anti-CD3/CD28 beads 1:5 overnight) is listed as “higher cytokine output”. Moreover, the “frequency of IFNγ+ TNFα+ CD8+ T cells” value in the assay on TILs [1] (AKT inhibitor treatment) is “increase”. In the assay on TILs [2] (setting [4]), the “IL-7R and CXCR3 expression on CD8+ TILs” value was “increase”; the “frequency of CD8+ TEMRA cells” value is listed as “increase”. Besides, in the assay with TILs [2] (AKT inhibitor during expansion, relative to controls), the “population of less differentiated CD39-CD69- cells” value is on record as “increases; also recorded: doubled”. For the same molecule, in the assay with TILs [2] (AKT inhibitor-treated TILs), the “TOX expression following stimulation” value is given as “lower TOX expression”. Besides, the “expression of CD38 and transcription factors T-bet and TOX” value with TILs [2] (CD39-CD69- cells, AKT inhibitor 1 μM) is listed as “reduced expression”. Besides, the “T cell ratios (CD8+, CD4+, CD4+ Foxp3+)” value in the assay on TILs [2] (ipatasertib-treated TILs after expansion) is recorded as “without affecting T cell ratios”. In the assay on TILs [3], the “TIL expansion (fold expansion)” value is “maintains” and the TIL viability entry is recorded as “maintains”. Also, in the assay on TILs [3] (listed as AKT inhibitor), the “TIL expansion (fold expansion)” value is recorded as “equivalent” and the TIL viability entry was “equivalent”.

B1: anti-PD-L1 antibody clone 38A1-IgG4-HA (antibody)
chain: EVQLVESGGGLVQPGGSLRLSCAASGFTFSNYAMSWVRQAPGKGLEWVSTISGSGGTTYYADSVKGRFTISRDNSKNTLYLQMNSLRVEDTAVYYCAKDWFRSSSPDAFDIWGQGTTVTVSAGGGGSGGGGSGGGGSGAPSYVLTQPPSVSVAPGQTARITCGGNNIGRKIVHWYQQRPGQAPVLVIYYDTDRPAGIPERFSGSNSGNMATLTISTVGAGDEADYYCQVWDTGSDHVVFGGGTKLTVL
As a reminder, the EC50 is the concentration giving half of the maximal effect. High values mean lower potency in that assay, low ones higher potency in that assay. In the case of B1, in the assay with PD-L1, the EC50 came out at 404 pM. That is a sub-nanomolar value.

B2: anti-PD-L1 antibody clone 19H9-IgG4-Flag (antibody)
chain: QVQLQESGGGLVKPGGSLRLSCAASGFTFSSYSMNWVRQAPGKGLEWVSGINTAGDTHYPESVKGRFTISRDNARNSLNLQMNSLRAEDTAVYYCVRERVEREYSGYDAFDIWGQGTTVTVSAGGGGSGGGGSGGGGSGAPNFMLTQPHSVSESLGKTVTISCTGSSGSIARKFVQWYQQRPGSSPTTVIYENNQRPSGVSDRFSGSIGSSSNSASLTISGLKTEDEADYYCQSYDSSNVVFGGGTKVTVL
B2 showed an EC50 in the assay with PD-L1 of 125 pM.
